Experimental data from patent US8309068B2, “Isolated polypeptides and methods of improving muscle strength” (Myostin Therapeutics Pty Ltd., priority 2006, dated 2012).
Where no end group is shown, it is not given here.

What was measured:
primary ovine myoblasts = assay: Ovine myoblast proliferation assay; assay type: cell-based; settings: 1, 5 or 10 μg/ml; 48 hours
Description: Human skeletal muscle myoblasts (Cambrex, USA) or primary ovine myoblasts were grown in Dulbecco's Modified Eagle Medium containing 20% FBS, 10% Horse serum and 0.5% chicken embryo extract according to the standard techniques. The myoblast proliferation assay was carried out in uncoated 96-well microtitre plates. Cell cultures were seeded at 2000 cells/well. Following a 24-hour attachment period, test media supplemented with 5% FCS containing either buffer as a control or different myostatin antagonists (300, 310 or 320) were added at 1, 5 and 10 μg/ml and cells were incubated for a further 144 hour period (for human cells) or 48 hours (for ovine cells). After the incubation period, proliferation was assessed using methylene blue photometric endpoint assay as previously described (Thomas et al, 2000).

mdx mice = assay: Mdx in vivo trial
Description: An in vivo trial was performed in which 4 week old mdx mice were injected 3× per week with 300 (6 μg/g) or saline (10 mice in each treatment) for 4 weeks. Body weights were recorded regularly and blood was collected for creatine kinase activity to assess the extent of muscle damage. Grip tests were performed as a measure of strength. After 4 weeks of treatment mice were culled and individual hind limb muscles collected for protein expression analysis—Pax7 & MyoD (satellite cell activation/myogenesis), and histology.
Protein was extracted from three hind limb muscles, biceps femoris, tibialis anterior and gastrocnemius. 15 μg of protein was separated on 4-12% SDS PAGE, transferred to nitrocellulose membrane and immunoprobed with Pax7 and MyoD.
Ten micron transverse sections were cut from the midbelly region of each m. gastrocnemius. Muscle sections were stained with haematoxylin and eosin (H & E) to visualise and measure areas of necrosis and regeneration. These areas were analysed using an Olympus BX50 microscope (Olympus, Tokyo, Japan), a SPOT-RT 4.01 camera and software (Diagnostic Instruments, Sterling Heights, Mich.). Areas were measured using Image-Pro Plus (Media Cybernetics, Silver Spring, Md.).
Blood was collected by tail-bleeding into 75 mm heparinised microhematocrit tubes. Tubes were centrifuged in a Micro-hematocrit centrifuge (Adams) for 5 minutes and then the plasma removed. The recovered plasma was centrifuged again at 2500×g for 5 minutes and then stored at −80° C. until analysis. Plasma was separated from the red blood cells within 2 hours of blood collection to minimise hemolysis. Creatine kinase activity was determined using CK N-acetyl-L-cysteine creatine kinase kit (Beckman Coulter) within 6 weeks of plasma collection. Muscle strength was assessed using a grip strength apparatus (MK-380S, Muromachi; Tokyo, Japan) at the beginning, mid-point and end of the trial. The maximum force exerted by a mouse while being pulled backward by the tail is recorded in Newtons. The mean of three grip tests for each mouse was calculated and the mean maximal force of 10 mice per group was determined.

[1] = system: skin burn in C56b1/6 mice; assay: In vivo skin burn trial (hydroxyproline assay); settings: 6 μg/g SC day 1, 3, 5, 7 and 10, vs control
Description: C56b1/6 mice at ˜12 months of age were anesthetized, the skin at the back of the neck was shaved, and a red-hot metal rod (1.5 mm wide, 7 mm long) was applied to the exposed skin of the mice for 5 sec. The mice were injected subcutaneously with either saline or 300 myostatin antagonist at 6 μg/g of body weight at day 1, 3, 5, 7 and 10 after injury. The mice were allowed to heal for 5, 7, 14, 21, 28, 35 and 46 days, after which they were culled and the skin frozen in liquid nitrogen for hydroxyproline analysis.
After a burn injury in skin a hydroxyproline assay was performed to determine the amount of collagen deposits on the wound area. Hydroxyproline is present in collagen, and gives it a stable helical conformation. Therefore, measuring the amount of hydroxyproline present in a given tissue will determine the amount of collagen present in the tissue.

[2] = system: C57B mice injected with Dexamethasone; assay: In vivo cachexia trial (Dexamethasone-induced)
Description: A study of chronic cachexia was designed whereby C57B mice, 4 weeks of age, were injected with the glucocorticoid drug Dexamethasone daily at a concentration of 1 mg/kg body weight. Three treatment groups were designed: 5 mice receiving daily injections of saline, 5 mice receiving daily injections of Dexamethasone and 5 mice receiving daily injections of Dexamethasone plus 300 antagonist at a concentration of 6μg/g body weight. Body weight of the mice was recorded daily and monitored closely for signs of cachexia. Food and water consumption was recorded to ensure that loss in body weight was not due to a loss of appetite or thirst. Body weights, fat-pad weights, and MyoD and Pax7 expression were assessed.

Wild type mice = assay: In vivo sarcopenia trial, 10 month administration in wild type mice
Description: Wild type mice (32 mice approx. 4-5 months of age) were injected subcutaneously fortnightly or monthly with 300 (6 μg/g body weight) or saline for a period of 10 month. Muscle strength was assessed using a grip strength apparatus (MK-380S, Muromachi; Tokyo, Japan) at the end of the trial. The maximum force exerted by a mouse while being pulled backward by the tail is recorded in Newtons. The mean of three grip tests for each mouse was calculated and the mean maximal force per group was determined.

[3] = system: TA muscle burn in C56b1/6 mice; assay: In vivo muscle burn trial
Description: C56b1/6 mice at ˜12 months of age were anesthetized and a red-hot metal rod (1.5 mm wide, 7 mm long) was applied to TA muscle for 5 sec. The mice were injected subcutaneously with saline or 300 myostatin antagonists at 6 μg/g of body weight at day 1, 3, 5, 7 and 10 after injury. The mice were allowed to heal for 5, 7, 14, 21, 28, 35 and 46 days, after which they were culled and the muscle processed for histology.
Histological muscle samples were covered in OCT and frozen in isopentane cooled in liquid nitrogen. The sections were cut in a cryostat at 10 μm thickness and stained with H&E and Van Gieson. Regeneration markers such as total number of centrally formed nuclei (CFN) and number of fibres with CNF were analysed for each day following the different treatments, and the values plotted.

[4] = 6 μg/g 3x per week for 4 weeks, biceps femoris, tibialis anterior and gastrocnemius
[5] = m. gastrocnemius sections, H & E

## myostatin antagonist 300: recombinant peptide, amino acids 267-300 of bovine myostatin, with N terminal and C terminal tag (SEQ ID NO: 6) (DFGLDCDEHSTESRCCRYPLTVDFEAFGWDWIIA; cysteine pairing not given here; also: N- and C-terminal tags; listed as Homo sapiens)
Primary ovine myoblasts
  proliferation capacity of ovine myoblasts compared to control: significantly enhanced
Mdx mice; [4]
  MyoD protein level (western blot): substantial upregulation
  Pax7 protein level (western blot): substantial upregulation
Mdx mice; 4 weeks, vs saline
  change in plasma creatine kinase activity from commencement to completion of the trial: larger decrease
Mdx mice; after 4 weeks of treatment
  grip strength: significant increase
Mdx mice; [5]
  percentage necrotic area of muscle: Reduced Necrosis
  percentage regenerating area of muscle: Increased Regeneration
[1]
  collagen on the wound area (hydroxyproline assay): tendency towards lower level of collagen
[2]; Dexamethasone and 300, right gastrocnemius, p<0.01
  Pax7 expression (Western blot): significant up-regulation (rescue)
[2]; Dexamethasone and 300, right gastrocnemius, p<0.05
  MyoD expression (Western blot): significant up-regulation (rescue)
[2]; Dexamethasone plus 300
  increase in left inguinal fat-pad weight: 33.2%
  increase in left retroperitoneal fat-pad weight: 23.3%
  increase in right inguinal fat-pad weight: 39%
  increase in right retroperitoneal fat-pad weight: 39.2%
[2]; co-treatment Dexamethasone 1 mg/kg and 300 6 μg/g daily
  average body weight loss: smaller average body weight loss
Wild type mice; 6 μg/g SC fortnightly for 10 month, data not shown
  increase of muscle function, fortnightly compared with monthly application: equally effective
Wild type mice; 6 μg/g SC monthly for 10 month, p<0.01
  grip strength over saline control at the end of the trial: significant increase
[3]; 21 days after burn injury
  H&E staining of the muscle: darker stained fibres, many with centrally formed nuclei
[3]; D21 after injury
  degree of fibrosis (van Gieson staining): higher degree of fibrosis in the control group
[3]; after muscle burn, compared to saline
  number of fibres with centrally formed nuclei (CFN): increased number
[3]; from D28 onwards, data not shown
  percentage of damage muscle area, treatment vs control: no difference
[3]; muscle burn, by D21, maintained up to day 46, vs control
  numbers of centrally formed nuclei (CFN): significantly higher
